# Tests used:
# Type in all cases: in vivo
# [1] = test system: barnyardgrass (Echinochloa crus-galli); experiment: Test A preemergence, barnyardgrass; details: 0 to 100 scale
# Procedure, shortened: (§1)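 Scores run from 0, no effect, to 100, complete control, assigned visually after roughly 10 d in the greenhouse. Preemergence treatment is a directed spray onto sown loam–sand soil; postemergence treatment targets plants 2 to 10 cm tall.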
# kochia (Kochia scoparia) [2] = experiment: Test A preemergence, kochia; details: 0 to 100 scale
# Procedure, shortened: as §1
# [3] = test system: ragweed (common ragweed, Ambrosia elatior); experiment: Test A preemergence, ragweed; details: 0 to 100 scale
# Procedure, shortened: as §1
# [4] = test system: ryegrass, It. (Italian ryegrass, Lolium multiflorum); experiment: Test A preemergence, ryegrass, It.; details: 0 to 100 scale
# Procedure, shortened: as §1
# [5] = test system: foxtail, giant (giant foxtail, Setaria faberii); experiment: Test A preemergence, foxtail, giant; details: 0 to 100 scale
# Procedure, shortened: as §1
# [6] = test system: pigweed (Amaranthus retroflexus); experiment: Test A preemergence, pigweed; details: 0 to 100 scale
# Procedure, shortened: as §1
# [7] = test system: barnyardgrass (Echinochloa crus-galli); experiment: Test A postemergence, barnyardgrass; details: 0 to 100 scale
# Procedure, shortened: as §1
# kochia (Kochia scoparia) [8] = experiment: Test A postemergence, kochia; details: 0 to 100 scale
# Procedure, shortened: as §1
# [9] = test system: ragweed (common ragweed, Ambrosia elatior); experiment: Test A postemergence, ragweed; details: 0 to 100 scale
# Procedure, shortened: as §1
# [10] = test system: ryegrass, It. (Italian ryegrass, Lolium multiflorum); experiment: Test A postemergence, ryegrass, It.; details: 0 to 100 scale
# Procedure, shortened: as §1
# [11] = test system: foxtail, giant (giant foxtail, Setaria faberii); experiment: Test A postemergence, foxtail, giant; details: 0 to 100 scale
# Procedure, shortened: as §1
# [12] = test system: wheat (Triticum aestivum); experiment: Test A postemergence, wheat; details: 0 to 100 scale
# Procedure, shortened: as §1
# corn (Zea mays) = experiment: Test A postemergence, corn; details: 0 to 100 scale
# Procedure, shortened: as §1
# [13] = test system: pigweed (Amaranthus retroflexus); experiment: Test A postemergence, pigweed; details: 0 to 100 scale
# Procedure, shortened: as §1
# [14] = test system: blackgrass (Alopecurus myosuroides); experiment: Test A postemergence, blackgrass; details: 0 to 100 scale
# Procedure, shortened: as §1
# [15] = test system: galium (catchweed bedstraw, Galium aparine); experiment: Test A postemergence, galium; details: 0 to 100 scale
# Procedure, shortened: as §1
# [16] = test system: barnyardgrass (Echinochloa crus-galli); experiment: Test B flooded paddy test, barnyardgrass; details: Flood, 250 g ai/ha; scale of 0 to 100 where 0 is no effect and 100 is complete control; 13 to 15 d
# Procedure, shortened: (§2)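 Plants at the 2-leaf stage were flooded to 3 cm above soil, and test compounds were applied directly into the paddy water, which was held at that depth throughout. After 13 to 15 d in a greenhouse, injury was rated visually against untreated controls on a 0–100 scale (0 no effect, 100 complete control).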
# [17] = test system: ducksalad (Heteranthera limosa); experiment: Test B flooded paddy test, ducksalad; details: Flood, 250 g ai/ha; scale of 0 to 100 where 0 is no effect and 100 is complete control; 13 to 15 d
# Procedure, shortened: as §2
# rice (Oryza sativa) = experiment: Test B flooded paddy test, rice; details: Flood, 250 g ai/ha; scale of 0 to 100 where 0 is no effect and 100 is complete control; 13 to 15 d
# Procedure, shortened: as §2
# [18] = test system: sedge, umbrella (small-flower umbrella sedge, Cyperus difformis); experiment: Test B flooded paddy test, sedge, umbrella; details: Flood, 250 g ai/ha; scale of 0 to 100 where 0 is no effect and 100 is complete control; 13 to 15 d
# Procedure, shortened: as §2
Structure (SMILES),"Plant response rating, Barnyardgrass ([1]; 125 g ai/ha)","Plant response rating, Barnyardgrass ([1]; 500 g ai/ha)","Plant response rating, Kochia (kochia (Kochia scoparia) [2]; 125 g ai/ha)","Plant response rating, Kochia (kochia (Kochia scoparia) [2]; 500 g ai/ha)","Plant response rating, Ragweed ([3]; 125 g ai/ha)","Plant response rating, Ragweed ([3]; 500 g ai/ha)","Plant response rating, Ryegrass, It. ([4]; 125 g ai/ha)","Plant response rating, Ryegrass, It. ([4]; 500 g ai/ha)","Plant response rating, Foxtail, Giant ([5]; 125 g ai/ha)","Plant response rating, Foxtail, Giant ([5]; 500 g ai/ha)","Plant response rating, Pigweed ([6]; 125 g ai/ha)","Plant response rating, Pigweed ([6]; 500 g ai/ha)","Plant response rating, Barnyardgrass ([7]; 125 g ai/ha)","Plant response rating, Barnyardgrass ([7]; 500 g ai/ha)","Plant response rating, Kochia (kochia (Kochia scoparia) [8]; 125 g ai/ha)","Plant response rating, Kochia (kochia (Kochia scoparia) [8]; 500 g ai/ha)","Plant response rating, Ragweed ([9]; 125 g ai/ha)","Plant response rating, Ragweed ([9]; 500 g ai/ha)","Plant response rating, Ryegrass, It. ([10]; 125 g ai/ha)","Plant response rating, Ryegrass, It. ([10]; 500 g ai/ha)",other results
Cc1cccc(C#CC2CNC(=O)C2C(=O)Nc2cccc(F)c2F)c1 (stereo not drawn) [Compound 22],60,80,0,20,0,0,0,0,50,70,0,0,40,70,0,0,0,0,0,0,"Plant response rating, Foxtail, Giant ([11]; 125 g ai/ha): 20; Plant response rating, Foxtail, Giant ([11]; 500 g ai/ha): 50; Plant response rating, Wheat ([12]; 125 g ai/ha): 0; Plant response rating, Wheat ([12]; 500 g ai/ha): 0; Plant response rating, Corn (corn (Zea mays); 125 g ai/ha): 0; Plant response rating, Corn (corn (Zea mays); 500 g ai/ha): 20; Plant response rating, Pigweed ([13]; 125 g ai/ha): 0; Plant response rating, Pigweed ([13]; 500 g ai/ha): 0; Plant response rating, Blackgrass ([14]; 125 g ai/ha): 0; Plant response rating, Blackgrass ([14]; 500 g ai/ha): 0; Plant response rating, Galium ([15]; 125 g ai/ha): 0; Plant response rating, Galium ([15]; 500 g ai/ha): 20; Plant response rating, Barnyardgrass [16]: 0; Plant response rating, Ducksalad [17]: 70; Plant response rating, Rice (rice (Oryza sativa)): 0; Plant response rating, Sedge, Umbrella [18]: 0"
Cc1cccc(C#CC2CNC(=O)C2C(=O)Nc2ccc(F)c(F)c2F)c1 (stereo not drawn) [Compound 23],60,80,0,0,0,0,0,0,40,80,0,0,20,50,0,20,0,0,0,0,"Plant response rating, Foxtail, Giant ([11]; 125 g ai/ha): 20; Plant response rating, Foxtail, Giant ([11]; 500 g ai/ha): 50; Plant response rating, Wheat ([12]; 125 g ai/ha): 0; Plant response rating, Wheat ([12]; 500 g ai/ha): 0; Plant response rating, Corn (corn (Zea mays); 125 g ai/ha): 0; Plant response rating, Corn (corn (Zea mays); 500 g ai/ha): 0; Plant response rating, Pigweed ([13]; 125 g ai/ha): 0; Plant response rating, Pigweed ([13]; 500 g ai/ha): 0; Plant response rating, Blackgrass ([14]; 125 g ai/ha): 0; Plant response rating, Blackgrass ([14]; 500 g ai/ha): 0; Plant response rating, Galium ([15]; 125 g ai/ha): 0; Plant response rating, Galium ([15]; 500 g ai/ha): 20; Plant response rating, Barnyardgrass [16]: 0; Plant response rating, Ducksalad [17]: 0; Plant response rating, Rice (rice (Oryza sativa)): 0; Plant response rating, Sedge, Umbrella [18]: 0"
"O=C1NCC(C#Cc2cccc(Cl)c2)C1C(=O)Nc1ccccc1F (stereo not drawn) [Compound 25, 4-[2-(3-chlorophenyl)ethynyl]N-(2-fluorophenyl)-2-oxo-3-pyrrolidinecarboxamide]",60,90,0,60,0,0,0,0,40,90,0,50,40,70,0,0,0,0,0,0,"Plant response rating, Foxtail, Giant ([11]; 125 g ai/ha): 30; Plant response rating, Foxtail, Giant ([11]; 500 g ai/ha): 80; Plant response rating, Wheat ([12]; 125 g ai/ha): 0; Plant response rating, Wheat ([12]; 500 g ai/ha): 0; Plant response rating, Corn (corn (Zea mays); 125 g ai/ha): 0; Plant response rating, Corn (corn (Zea mays); 500 g ai/ha): 0; Plant response rating, Pigweed ([13]; 125 g ai/ha): 0; Plant response rating, Pigweed ([13]; 500 g ai/ha): 20; Plant response rating, Blackgrass ([14]; 125 g ai/ha): 0; Plant response rating, Blackgrass ([14]; 500 g ai/ha): 0; Plant response rating, Galium ([15]; 125 g ai/ha): 0; Plant response rating, Galium ([15]; 500 g ai/ha): 60; Plant response rating, Barnyardgrass [16]: 0; Plant response rating, Ducksalad [17]: 85; Plant response rating, Rice (rice (Oryza sativa)): 20; Plant response rating, Sedge, Umbrella [18]: 0"
O=C1NCC(C#Cc2cccc(Cl)c2)C1C(=O)Nc1ccc(F)c(F)c1F (stereo not drawn) [Compound 26],0,70,0,0,0,0,0,0,0,70,0,40,0,60,0,0,0,0,0,0,"Plant response rating, Foxtail, Giant ([11]; 125 g ai/ha): 0; Plant response rating, Foxtail, Giant ([11]; 500 g ai/ha): 40; Plant response rating, Wheat ([12]; 125 g ai/ha): 0; Plant response rating, Wheat ([12]; 500 g ai/ha): 0; Plant response rating, Corn (corn (Zea mays); 125 g ai/ha): 0; Plant response rating, Corn (corn (Zea mays); 500 g ai/ha): 0; Plant response rating, Pigweed ([13]; 125 g ai/ha): 0; Plant response rating, Pigweed ([13]; 500 g ai/ha): 0; Plant response rating, Blackgrass ([14]; 125 g ai/ha): 0; Plant response rating, Blackgrass ([14]; 500 g ai/ha): 0; Plant response rating, Galium ([15]; 125 g ai/ha): 0; Plant response rating, Galium ([15]; 500 g ai/ha): 0; Plant response rating, Barnyardgrass [16]: 0; Plant response rating, Ducksalad [17]: 75; Plant response rating, Rice (rice (Oryza sativa)): 0; Plant response rating, Sedge, Umbrella [18]: 0"
O=C1NCC(/C=C/c2ccccc2F)C1C(=O)Nc1cccc(F)c1F (stereo not drawn) [Compound 28],50,90,0,0,0,0,0,0,50,90,0,0,50,70,0,0,0,0,0,0,"Plant response rating, Foxtail, Giant ([11]; 125 g ai/ha): 20; Plant response rating, Foxtail, Giant ([11]; 500 g ai/ha): 50; Plant response rating, Wheat ([12]; 125 g ai/ha): 0; Plant response rating, Wheat ([12]; 500 g ai/ha): 0; Plant response rating, Corn (corn (Zea mays); 125 g ai/ha): 0; Plant response rating, Corn (corn (Zea mays); 500 g ai/ha): 0; Plant response rating, Pigweed ([13]; 125 g ai/ha): 0; Plant response rating, Pigweed ([13]; 500 g ai/ha): 0; Plant response rating, Blackgrass ([14]; 125 g ai/ha): 0; Plant response rating, Blackgrass ([14]; 500 g ai/ha): 0; Plant response rating, Galium ([15]; 125 g ai/ha): 0; Plant response rating, Galium ([15]; 500 g ai/ha): 20; Plant response rating, Barnyardgrass [16]: 90; Plant response rating, Ducksalad [17]: 90; Plant response rating, Rice (rice (Oryza sativa)): 10; Plant response rating, Sedge, Umbrella [18]: 50"

# — patent US10906873B2, “Substituted cyclic amides as herbicides” (FMC Corporation, priority 2015, dated 2021)
